Measured values taken from patent US8044089B2, “3-3-di-substituted-oxindoles as inhibitors of translation initiation” (President and Fellows of Harvard College, priority 2004, dated 2011).

Columns and labels:
[1] = test system: intracellular Ca^2+ stores; experiment: Ca2+ release from intracellular stores (FURA-2AM loaded cells); assay type: cell-based; set-up: key to Ca^2+ (Ca^2+ release from intracellular stores): a “+” denotes release; a “+/−” denotes inconclusive
Excerpt: (§1) As a non-limiting example, compounds 1272 and 1273 (set forth in Table 1) were synthesized starting from 3-bromoaniline, which upon condensation with hydroxylamine and chloral hydrate followed by concentrated sulfuric acid yielded an inseparable regioisomeric mixture of 4- and 6-bromo isatins. The addition of the two phenyl groups to the three position of the oxindole allowed easy chromatographic separation of the 4- and 6-bromo-3,3-diphenyloxindoles 1272 and 1273. Table 1 sets forth biological data for diaryloxindole compounds including, but not limited to 1272 and 1273. For Tables 1-14, Ca^2+ refers to Ca^2+ release from intracellular stores where a “+” denotes release and a “+/−” denotes inconclusive; eIF2α-P refers to phosphorylation of eIF2α measured by Western blot; SRB refers to the inhibitory concentration to reduce cell growth by 50% (IC50) for growth inhibition of A549 lung cancer cells; and n.d. is not determined.
(§2) Without intending to be bound by theory, the mechanism of action of translation initiation inhibitors is set forth in FIG. 1, and includes the depletion (complete or partial depletion) of intracellular calcium (Ca^2+) stores and phosphorylation of eIF2α. Compounds synthesized using the approaches described herein were screened for their ability to partially deplete intracellular Ca^2+ stores using FURA-2AM loaded cells (Benzaquen et al. (1995) Nature Medicine, 1:534, incorporated herein by reference in its entirety for all purposes). A limited subset of compounds were further screened for their ability to deplete endoplasmic reticulum (ER) Ca^2+. The Ca^2+ content of the ER was monitored using ER-targeted, Ca^2+ sensitive, recombinant proteins. These recombinant proteins emitted light by fluorescent resonance energy transfer (FRET) as a function of the Ca^2+ content of the medium. Such assays are previously described (Miyawaki, A.; Mizuno, H.; Llopis, J.; Tsien, R. Y.; Jalink, K. Cameleons as cytosolic and intra-organellar calcium probes, Oxford University Press: Oxford, London, 2001; pp 3-16, incorporated herein by reference in its entirety for all purposes). Compounds that depleted Ca^2+ were further evaluated for their ability to phosphorylate eIF2α. eIF2α phosphorylation was measured by Western blot analysis using the phospho-specific anti-eIF2α antibody, as previously described (Aktas et al. (1998) Proc. Natl. Acad. Sci. USA, 95:8280, incorporated herein by reference in its entirety for all purposes).

eIF2α = eIF2α phosphorylation measured by Western blot; assay type: cell-based; details: for eIF2α-P (phosphorylation of eIF2α measured by Western blot): unit or reference not given
Excerpt: as §1, §2

A549 lung cancer cells = experiment: SRB growth inhibition of A549 lung cancer cells; assay type: cell-based, human; details: for IC50: A549 lung cancer cells, unit inferred, read-out: SRB (IC50 for growth inhibition of A549 lung cancer cells)
Excerpt: As a non-limiting example, compounds 1272 and 1273 (set forth in Table 1) were synthesized starting from 3-bromoaniline, which upon condensation with hydroxylamine and chloral hydrate followed by concentrated sulfuric acid yielded an inseparable regioisomeric mixture of 4- and 6-bromo isatins. The addition of the two phenyl groups to the three position of the oxindole allowed easy chromatographic separation of the 4- and 6-bromo-3,3-diphenyloxindoles 1272 and 1273. Table 1 sets forth biological data for diaryloxindole compounds including, but not limited to 1272 and 1273. For Tables 1-14, Ca^2+ refers to Ca^2+ release from intracellular stores where a “+” denotes release and a “+/−” denotes inconclusive; eIF2α-P refers to phosphorylation of eIF2α measured by Western blot; SRB refers to the inhibitory concentration to reduce cell growth by 50% (IC50) for growth inhibition of A549 lung cancer cells; and n.d. is not determined. […]

SMILES | Ca^2+ (Ca^2+ release from intracellular stores) [1] | eIF2α-P (phosphorylation of eIF2α measured by Western blot) (eIF2α) | IC50 (A549 lung cancer cells) [µM] | eIF2α phosphorylation (in words) (eIF2α) | growth inhibition of cancer cells (in words) (A549 lung cancer cells; A549)
C#CC1(c2cc(C(C)(C)C)ccc2O)C(=O)Nc2ccccc21 (centres unmarked) [Compound 1276] | + | 0.75 | 13 | – | –
CC(C)c1ccc(O)c(C2(c3ccccc3)C(=O)Nc3ccccc32)c1 (centres unmarked) [Compound 1282] | + | 4.96 | 4 | – | –
Cc1cc(C2(c3ccccc3)C(=O)Nc3ccccc32)c(NS(=O)(=O)c2ccc(Br)cc2)cc1O (centres unmarked) [Compound 1591] | + | 3.30 | 3 | – | –
CC(C)(C)c1ccc(O)c(C2(c3ccccc3)C(=O)Nc3c(C(F)(F)F)cccc32)c1 (centres unmarked) [Compound 1230] | +/− | 0.41 | 3 | – | –
CC(C)(C)c1ccc(O)c(C2(c3ccccc3)C(=O)Nc3ccc(Cl)cc32)c1 (centres unmarked) [Compound 1215] | +/− | 1.1 | 3 | – | –
Cc1cc(C2(c3ccccc3)C(=O)Nc3c(C(=O)O)cccc32)c(NC(=O)OCC2c3ccccc3-c3ccccc32)cc1O (centres unmarked) [Compound 1394] | + | 8.21 | 9 | – | –
CC(C)(C)c1ccc(O)c(C2(c3cccc(Cl)c3)C(=O)Nc3ccccc32)c1 (centres unmarked) [Compound 1221] | + | 3.24 | 3 | – | –
COc1ccccc1C1(c2ccccc2)C(=O)Nc2ccccc21 (centres unmarked) [Compound 1292] | +/− | 1.04 | 9 | – | –
CCc1cccc2c1C(c1ccccc1)(c1ccccc1)C(=O)N2 [Compound 1270] | + | 1.68 | > 20 | – | –
CC(C)(C)c1ccc(O)c(C2(c3ccccc3)C(=O)Nc3ccc(Br)cc32)c1 (centres unmarked) [Compound 1211] | + | 1.14 | 3 | – | –
O=C(O)c1ccc(Cl)c2c1NC(=O)C2(c1ccccc1)c1ccccc1 [Compound 1392] | + | 2.76 | 4 | improved eIF2α phosphorylation | improved growth inhibition of cancer cells
CC(C)(C)c1ccc(O)c(C2(c3ccccc3)C(=O)Nc3cc(Br)ccc32)c1 (centres unmarked) [Compound 1235] | + | 3.2 | 4 | – | –
CC(C)(C)c1ccc(OCC(=O)O)c(C2(c3ccccc3)C(=O)Nc3ccccc32)c1 (centres unmarked) [Compound 1397] | + | 1.46 | 8 | – | –
CC(C)Cc1ccc(C2(c3ccccc3)C(=O)Nc3ccccc32)cc1 (centres unmarked) [Compound 1297] | + | 0.7 | 8 | – | –
O=C1Nc2ccccc2C1(c1ccccc1)c1ccccc1O (centres unmarked) [Compound 1197] | + | 1.50 | 14 | – | –
CCc1ccc2c(c1)C(c1ccccc1)(c1cc(C(C)(C)C)ccc1O)C(=O)N2 (centres unmarked) [Compound 1254] | + | 2.12 | 4 | – | –
CC(C)(C)c1ccc(O)c(C2(c3ccccc3)C(=O)Nc3c(I)cccc32)c1 (centres unmarked) [Compound 1253] | + | 2.05 | 6 | – | –
Cc1cc(C2(c3ccccc3)C(=O)Nc3c(C(=O)O)cccc32)c(NS(C)(=O)=O)cc1O (centres unmarked) [Compound 1417] | + | 0.96 | > 20 | – | –
